Laboratory results taken from PubChem BioAssay (NCI).
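Compound exposure: 48 hours, 5 concentrations, 96-well plates. Here, GI50 denotes the concentration required for 50% inhibition of growth. TGI: total growth inhibition.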

What was measured:
Experiment in all cases: DTP human tumour cell line panel, 48 h
[1] = system: SK-MEL-28 melanoma
[2] = system: LOX IMVI melanoma
[3] = system: DMS 114 small cell lung
[4] = system: SK-MEL-2 melanoma
[5] = system: T-47D breast
[6] = system: OVCAR-4 ovarian
[7] = system: SK-OV-3 ovarian
[8] = system: LXFL 529 NSCLC
[9] = system: DMS 273 small cell lung
[10] = system: SNB-75 CNS

| Compound | TGI [1] [µM] | TGI [2] [µM] | TGI [3] [µM] | TGI [4] [µM] | TGI [5] [µM] | TGI [6] [µM] | TGI [7] [µM] | TGI [8] [µM] | TGI [9] [µM] | TGI [10] [µM] | GI50 [1] [µM] | GI50 [2] [µM] | GI50 [3] [µM] | GI50 [4] [µM] | GI50 [6] [µM] | GI50 [7] [µM] | GI50 [8] [µM] | GI50 [9] [µM] | GI50 [10] [µM] |
| --- | --- | --- | --- | --- | --- | --- | --- | --- | --- | --- | --- | --- | --- | --- | --- | --- | --- | --- | --- |
| CC(=O)OC1CC(n2cc(F)c(=O)[nH]c2=O)OC1CO (stereo not drawn) | > 100 | > 63.8 | > 100 | > 100 | > 100 | > 100 | > 100 | 16.4 | > 47 | > 100 |  |  |  |  |  |  |  |  |  |
| CCn1c2c(n(CC)c1=S)-c1c(n(CC)c(=S)n1CC)SSSS2 | 18.7 | 23.2 | 38.1 | 31.2 | 5.16 | 20.1 | 98.9 | 5.97 | 33.1 | 26.6 |  |  |  |  |  |  |  |  |  |
| CC(C)(C)c1nc2c(o1)C(=O)c1ccccc1C2=O | 4.35 | 1.94 | 5.89 | 1.83 | 3.97 | 2.44 | 10.2 | 18.1 | 12 | 6.7 |  |  |  |  |  |  |  |  |  |
| COc1ccc(/C(Cl)=C(\C=O)c2ccc([N+](=O)[O-])cc2)cc1OC | 30.5 | 12.4 | 22.3 | > 77.1 | > 100 |  | 60 | 13.7 | 32 | 20 |  |  |  |  |  |  |  |  |  |
| NC(N)=NS(=O)(=O)c1ccc(NCc2c3ccccc3nc3ccccc23)cc1 | > 97.1 | 58 | 16 | > 67 | 23.5 | > 100 | 27.3 | 44.3 | > 61.6 | 9.02 |  |  |  |  |  |  |  |  |  |
| Cc1cc(N(CCC#N)S(C)(=O)=O)ccc1C=O | > 100 | > 100 | > 100 | > 100 |  | > 100 | > 100 | > 100 | > 100 | > 100 |  |  |  |  |  |  |  |  |  |
| CCC[CH2][Sn]([CH2]CCC)([O]C(=O)c1cc(F)cc(F)c1)[O]C(=O)c1cc(F)cc(F)c1 | 2.37 | 1.91 | 1.22 | 1.24 |  | 3.01 | 5.45 | 0.607 | 2.5 | 2.09 | 1.13 | 0.617 | 0.307 | 0.298 | 1.6 | 2.45 | 0.171 | 1.25 | 0.82 |
| CCCN(CCCC(NC(C)=O)C(=O)NCc1ccccc1)C(=O)NC (stereo not drawn) | > 100 | > 100 | > 100 | > 100 |  | > 100 | > 100 | > 100 | > 100 | 75.3 |  |  |  |  |  |  |  |  |  |
| O=C(CC1(O)C(=O)Nc2ccccc21)c1ccccc1Cl (stereo not drawn) | > 100 | > 100 | > 100 | > 100 |  | > 100 | > 100 | > 100 | > 100 | > 100 |  |  |  |  |  |  |  |  |  |
| COc1ccc(C(O)/C(=N\NC(N)=S)c2nc3ccc([N+](=O)[O-])cc3[nH]c2=O)cc1OC (stereo not drawn) | > 100 | > 100 | > 100 | > 100 |  | > 100 | > 100 | > 100 | > 100 | > 100 |  |  |  |  |  |  |  |  |  |
